# Entries after “also recorded” stand apart in the source; their conditions may differ.
# How the values were obtained:
# [1] = Slurry conversion of polymorphic forms / thermodynamic stability comparison
# [2] = Stability test under high humidity condition (>90% RH, 5 days), analyzed by XRPD; conditions: 500 mg
compound,measurement,setting,value
"O=C([O-])c1ccccc1.[Na+] [sodium benzoate from Merck, sodium benzoate]",Thermodynamic stability among forms of sodium benzoate,[1],less thermodynamically stable
same,Change of XRPD pattern,[2],significant changes; also recorded: changes in XRPD
O=C([O-])c1ccccc1.[Na+] [sodium benzoate from Formosa Laboratories],Thermodynamic stability among forms of sodium benzoate,[1],less thermodynamically stable
same,Change of XRPD pattern,[2],significant changes; also recorded: changes in XRPD
